For 13 compounds, MIC and Ratio results are on record in ChEMBL document CHEMBL2062457, “Synthesis and antibacterial activity of desosamine-modified macrolide derivatives” (2012).

Converted amounts (≈) assume the structure as drawn.

Assay type in all cases: functional
Assay [1] concerns Staphylococcus aureus. The assay can be described thus: Antibacterial activity against macrolide-susceptible Staphylococcus aureus ATCC 29213.
Assay [2] has as its system Staphylococcus aureus. As to the kind of experiment: Antibacterial activity against macrolide-resistant Staphylococcus aureus ATCC 33591 constitutively expressing ermA.
The subject of assay [3] is Staphylococcus aureus. The assay can be described thus: Ratio of MIC for macrolide-resistant Staphylococcus aureus ATCC 33591 to MIC for macrolide-susceptible Staphylococcus aureus ATCC 29213.

Take `CC[C@H]1OC(=O)[C@H](C)[C@@H](O[C@H]2C[C@@](C)(OC)[C@@H](O)[C@H](C)O2)[C@H](C)[C@@H](O[C@@H]2O[C@H](C)C[C@H](NC)[C@H]2O)[C@](C)(OC)C[C@@H](C)C(=O)[C@H](C)[C@@H](O)[C@]1(C)O`: the MIC (commonly the least concentration at which growth counts as inhibited) in assay [1] is 4 µg/mL (≈ 5.45 µM); in assay [2], greater than 256 µg/mL.
Taken in the same sequence, the figures for `CC[C@H]1OC(=O)[C@H](C)[C@@H](O[C@H]2C[C@@](C)(OC)[C@@H](O)[C@H](C)O2)[C@H](C)[C@@H](O[C@@H]2O[C@H](C)C[C@H](NC)[C@H]2O)[C@](C)(O)C[C@@H](C)C(=O)[C@H](C)[C@@H](O)[C@]1(C)O` were 8 µg/mL (≈ 11.1 µM) and greater than 256 µg/mL.
On to `CC[C@H]1OC(=O)[C@H](C)[C@@H](O[C@H]2C[C@@](C)(OC)[C@@H](O)[C@H](C)O2)[C@H](C)[C@@H](O[C@@H]2O[C@H](C)C[C@H](N(C)C(=N)N)[C@H]2O)[C@](C)(OC)C[C@@H](C)C(=O)[C@H](C)[C@@H](O)[C@]1(C)O`, for which the MIC was 32 µg/mL (≈ 41.2 µM) in assay [1] and greater than 256 µg/mL in assay [2].
With `CC[C@H]1OC(=O)[C@H](C)[C@@H](O[C@H]2C[C@@](C)(OC)[C@@H](O)[C@H](C)O2)[C@H](C)[C@@H](O[C@H]2C[C@@H](N(C)C)C[C@@H](C)O2)[C@](C)(O)C[C@@H](C)C(=O)[C@H](C)[C@@H](O)[C@]1(C)O`, the MIC in assay [1] is 64 µg/mL (≈ 89.1 µM); in assay [2], greater than 256 µg/mL.
As to `CC[C@H]1OC(=O)[C@H](C)[C@@H](O[C@H]2C[C@@](C)(OC)[C@@H](O)[C@H](C)O2)[C@H](C)[C@@H](O[C@H]2C[C@@H](N(C)C)C[C@@H](C)O2)[C@](C)(OC)C[C@@H](C)C(=O)[C@H](C)[C@@H](O)[C@]1(C)O`, the MIC in assay [1] is 64 µg/mL (≈ 87.4 µM); in assay [2] it was greater than 256 µg/mL.
On to `CC[C@H]1OC(=O)[C@H](C)C(=O)[C@H](C)[C@@H](O[C@@H]2O[C@H](C)C[C@H](NC)[C@H]2O)[C@](C)(OC)C[C@@H](C)C(=O)[C@H](C)[C@H]2N(CCCCn3cnc(-c4cccnc4)c3)C(=O)O[C@]12C`, for which the MIC in assay [1] is 16 µg/mL (≈ 20.1 µM); in assay [2] it was greater than 256 µg/mL.
Taken in the same sequence, the figures for `CC[C@H]1OC(=O)[C@H](C)C(=O)[C@H](C)[C@@H](O[C@H]2C[C@@H](N(C)C)C[C@@H](C)O2)[C@](C)(OC)C[C@@H](C)C(=O)[C@H](C)[C@H]2N(CCCCn3cnc(-c4cccnc4)c3)C(=O)O[C@]12C` were 8 µg/mL (≈ 10.1 µM) and greater than 256 µg/mL.
For the compound `CCCCN(C)[C@H]1C[C@@H](C)O[C@@H](O[C@@H]2[C@@H](C)C(=O)[C@@H](C)C(=O)O[C@H](CC)[C@@]3(C)OC(=O)N(CCCCn4cnc(-c5cccnc5)c4)[C@@H]3[C@@H](C)C(=O)[C@H](C)C[C@@]2(C)OC)[C@@H]1O`, the results for the MIC in assay [1] and in assay [2] were 0.5 µg/mL (≈ 0.585 µM) and greater than 256 µg/mL, respectively.
For `CCCCN(C)[C@@H]1C[C@H](O[C@@H]2[C@@H](C)C(=O)[C@@H](C)C(=O)O[C@H](CC)[C@@]3(C)OC(=O)N(CCCCn4cnc(-c5cccnc5)c4)[C@@H]3[C@@H](C)C(=O)[C@H](C)C[C@@]2(C)OC)O[C@H](C)C1` the same measures were 64 µg/mL (≈ 76.4 µM) and greater than 256 µg/mL.
Turning to `CC[C@H]1OC(=O)[C@H](C)C(=O)[C@H](C)[C@@H](O[C@H]2C[C@@H](N(C)C)C[C@@H](C)O2)[C@](C)(OC/C=C/c2cnc3ccccc3c2)C[C@@H](C)C(=O)[C@H](C)[C@H]2NC(=O)O[C@@]21C`, the values for the MIC in assay [1] and in assay [2] were 4 µg/mL (≈ 5.33 µM) and greater than 256 µg/mL, respectively.
On to `CC[C@H]1OC(=O)[C@H](C)C(=O)[C@H](C)[C@@H](O[C@@H]2O[C@H](C)C[C@H](N(C)C)[C@H]2O)[C@](C)(OCC=Cc2cnc3ccccc3c2)C[C@@H](C)C(=O)[C@H](C)[C@H]2NC(=O)O[C@@]21C` [CETHROMYCIN], for which the values for the MIC in assay [1] and in assay [2] were 0.0075 µg/mL (≈ 0.00979 µM) and greater than 256 µg/mL, respectively. Also, the Ratio in assay [3] is recorded as greater than 10000.
As for `CC[C@H]1OC(=O)[C@H](C)[C@@H](O[C@H]2C[C@@](C)(OC)[C@@H](O)[C@H](C)O2)[C@H](C)[C@@H](O[C@@H]2O[C@H](C)C[C@H](N(C)C)[C@H]2O)[C@](C)(O)C[C@@H](C)C(=O)[C@H](C)[C@@H](O)[C@]1(C)O` [ERYTHROMYCIN], the MIC is 0.5 µg/mL (≈ 0.681 µM) in assay [1] and greater than 256 µg/mL in assay [2].
Consider `CC[C@H]1OC(=O)[C@H](C)C(=O)[C@H](C)[C@@H](O[C@@H]2O[C@H](C)C[C@H](N(C)C)[C@H]2O)[C@](C)(OC)C[C@@H](C)C(=O)[C@H](C)[C@H]2N(CCCCn3cnc(-c4cccnc4)c3)C(=O)O[C@]12C` [TELITHROMYCIN], for which the MIC in assay [1] was 0.08 µg/mL (≈ 0.0985 µM); in assay [2] it was greater than 256 µg/mL.
